Data published in PMC6789111, “Crossing the blood-brain-barrier with nanoligand drug carriers self-assembled from a phage display peptide” (Nature Communications, 2019).
Each block holds one compound with its values, some of them ahead of it. Peptide text beside a SMILES is read from it. * marks the point of attachment. 5FAM = O=C1OC2(c3ccc(O)cc3Oc3cc(O)ccc32)c2ccc(C(=O)*)cc21

Key:
hCMEC/D3 cells [1] = experiment: Cell uptake by flow cytometry; format: cell-based, human; details: 5 µM, 24 h, 37 °C, flow cytometry (Supplementary Fig. 13)
Protocol: Peptide internalisation was measured by flow cytometry (FACS ArrayTM Cell Analysis, Becton, Dickinson and Company, NJ, USA). Cells (1 × 10^5 cm^−2) were seeded on 24-well plates and grown 1 day at 37 °C and 5% CO2 in order to reach 60–70% confluence. The cells were washed 3 times with pre-heated PBS. The uptake studies were initiated by adding 500 µL of 5 µM fluorescence-labelled peptides (diluted in cell medium containing with different serum concentration). Serum concentration in incubation varied from 5 to 20% (v/v). […] A total of 10,000 cells were analysed by flow cytometry.

claudin-5 = experiment: Claudin-5 silencing, Western blot; format: cell-based, human; details: siRNA delivered with FAM-CGY (5 µM), 72 h after transfection
Protocol: Peptide/siRNA assemblies were formed by dropwise addition (80–240 nM range) of either Cy3-siRNA or functional anti-TfR siRNA or anti-Claudin-5 siRNA (with the sense and antisense sequences of 5′-[…]tt-3′ and 5′-[…]gc-3′) to 50 µM FAM-CGY in physiological saline and incubated for 30 min. Next, the mixtures were diluted with saline to a final peptide concentration 5 µM for TEM studies. In vitro uptake and silencing experiments were performed in hCMEC/D3 cells. Briefly, peptide/siRNA nano-assemblies (5 µM FAM-CGY and either 8 or 16 or 24 nM functional siRNA, final concentration) were added to 2.3 × 10^5 hCMEC/D3 cells. After 24 h incubation, the medium was replaced by fresh growth medium. After another 48 h of incubation, the level of the target protein was determined by Western blotting. The results were compared with parallel experiments containing nano-assemblies formed from FAM-CGY and an irrelevant siRNA as well as transfection procedures with complexes formed between siRNA and siPORT Amine transfection agent. Cy3-siRNA uptake was quantified by measuring median cell fluorescence using FACS.
Supplementary Fig. 20. […] FAM-CGY (5 µM final concentration)/CLDN5-specific siRNA assemblies effectively down regulates CLDN5 in hCMEC/D3 cells as determined by Western blotting. […] CLDN5 expression was measured 72 h after transfection. […]

TfR [2] = experiment: TfR silencing by peptide/siRNA nano-assemblies, Western blot; format: cell-based, human
Protocol: Transferrin receptor and RAGE expression level in human cells was determined by Western blot analysis. Briefly, cells were seeded in 75 cm^2-flasks and grown to reach 60-70% confluence. The cells were washed in ice-cold PBS three times and then scraped off the flask and collected by centrifugation. The pelleted cells were lysed for 10 min at room temperature on a shaker (900 rpm) following the ProteoJETTM Mammalian Cell Lysis Reagent protocol. Lysates were spun in a centrifuge at 18,000 × g for 15 min and the supernatant was collected. Equal protein aliquots were resolved by SDS-PAGE, transferred to nitrocellulose membranes using iBot Dry Blotting system (Invitrogen, CA, USA), immunoblotted with primary antibodies (mouse anti-human TfR antibody or rabbit polyclonal to mouse and human RAGE) (1;200 and 1:750, respectively) and detected with HRP-Goat-anti-mouse (or rabbit) IgG (H + L) secondary antibody (1:3000). Tubulin was immunoblotted with mouse anti-human-β-tubulin (1:200) and detected with HRP-Goat-anti-mouse IgG (H + L) secondary antibody (1:3000). These were followed by incubation with Novex® ECL Chemiluminescent Substrate Reagent Kit. The Bands were quantified with ImageJ 1.44p (http://imagej.nih.gov/ij/). […] Next, the mixtures were diluted with saline to a final peptide concentration 5 μM for TEM studies. […] After 24 h incubation, the medium was replaced by fresh growth medium. After another 48 h of incubation, the level of the target protein was determined by Western blotting. The results were compared with parallel experiments containing nano-assemblies formed from FAM-CGY and an irrelevant siRNA as well as transfection procedures with complexes formed between siRNA and siPORT Amine transfection agent. Cy3-siRNA uptake was quantified by measuring median cell fluorescence using FACS.

hCMEC/D3 cells [3] = experiment: Trypan Blue exclusion test; format: cell-based, human; details: after receptor down regulation
TfR [4] = experiment: TfR silencing with siPORT Amine, Western blot; format: cell-based, human; details: 28 nM siRNA with siPORT Amine
Protocol: (§1) hCMEC/D3 cells were transfected with anti-TfR siRNA [sense sequence ([NT]) and antisense sequence ([NT])] or anti-RAGE siRNA [sense sequence ([NT]) and antisense sequence [NT]] or control siRNA using siPORT Amine transfection agent, according to the manufacturer' Neofection protocol. Briefly, siPORT Amine transfection reagent (7 μL) was added to serum-free cell medium to a final volume of 100 μL and vortexed. […] The mixture was gently mixed and incubated at room temperature for 20 min. The transfection agent/siRNA complex was added to culture plates containing 2.3 × 10^5 hCMEC/D3 cells in 2.3 mL normal growth medium. The final concentration of siRNA was 28 nM. After 24 h incubation, the medium containing transfection agent/siRNA complex was removed and fresh growth medium was added. After 48 h post transfection, the level of target protein (TfR or RAGE) was determined by Western blotting. […] Uptake was quantified by measuring fluorescence using FACS. Transferrin receptor and RAGE expression level in human cells was determined by Western blot analysis. Briefly, cells were seeded in 75 cm^2-flasks and grown to reach 60-70% confluence. The cells were washed in ice-cold PBS three times and then scraped off the flask and collected by centrifugation. The pelleted cells were lysed for 10 min at room temperature on a shaker (900 rpm) following the ProteoJETTM Mammalian Cell Lysis Reagent protocol. Lysates were spun in a centrifuge at 18,000 × g for 15 min and the supernatant was collected. Equal protein aliquots were resolved by SDS-PAGE, transferred to nitrocellulose membranes using iBot Dry Blotting system (Invitrogen, CA, USA), immunoblotted with primary antibodies (mouse anti-human TfR antibody or rabbit polyclonal to mouse and human RAGE) (1;200 and 1:750, respectively) and detected with HRP-Goat-anti-mouse (or rabbit) IgG (H + L) secondary antibody (1:3000). Tubulin was immunoblotted with mouse anti-human-β-tubulin (1:200) and detected with HRP-Goat-anti-mouse IgG (H + L) secondary antibody (1:3000). These were followed by incubation with Novex® ECL Chemiluminescent Substrate Reagent Kit. The Bands were quantified with ImageJ 1.44p (http://imagej.nih.gov/ij/).

[5] = Blood count after intravenous injection; format: in vivo, ICR mice; details: mean ± s.d., n = 3
Text: Supplementary Table 2. Blood count following intravenous injection of FAM-CGY NLCs in free form and complexed with siRNA
Samples WBC RBC HGB HCT MCV MCH MCHC PLT
WBC: white blood cell; RBC: red blood cell count; HGB: haemoglobin; HCT: haematocrit; MCV: mean corpuscular volume; MCH: mean corpuscular haemoglobin; MCHC: mean corpuscular
significance (*p < 0.05). The results are mean ± s.d. (n = 3 animals per group). The experiment was repeated twice with identical results. The siRNA represent BACE-1-specific siRNA. The
final concentration of the peptide conjugate was 10 µM and that of siRNA was 48 nM, based on blood volume calculation equivalent to 6% of the body weight. LPS = lipopolysaccharide.

Iba-1 = experiment: ELISA of Iba-1 in hippocampus; format: in vivo, ICR mice; details: 24 h after i.v. (LPS 24 h); Ave.
GFAP = experiment: ELISA of GFAP in hippocampus; format: in vivo, ICR mice; details: 24 h after i.v. (LPS 24 h); Ave.
IL-1β = experiment: ELISA of IL-1β in hippocampus; format: in vivo, ICR mice; details: 24 h after i.v. (LPS 24 h); Ave.
IL-6 = experiment: ELISA of IL-6 in hippocampus; format: in vivo, ICR mice; details: 24 h after i.v. (LPS 24 h); Ave.
Protocol: After 4, 24 and 72 h post injection, mice were sacrificed and perfused with 10 mL 0.9% (w/v) saline at a rate of 2 mL min^−1.
Hippocampus was dissected out, rinsed in ice-cold PBS thoroughly, weighted and immediately frozen in liquid nitrogen. Tissues were cut into small pieces and homogenized in 1 mL ice-cold PBS with a glass homogeniser and sonicated with an ultrasonic cell disrupter to break the cell membranes. Homogenates were centrifuges for 5 min at 5,000 × g and supernatants were assayed immediately for quantitative determination of TNF-α, IL-6, IL-1β, Iba-1 and GFAP by corresponding ELISA kits, respectively in accordance with manufacturer’s instructions.

RAGE = RAGE silencing with siPORT Amine, Western blot; format: cell-based, human; details: 28 nM siRNA with siPORT Amine
Protocol: as §1

[6] = hCMEC/D3, control siRNA = 100.00, replicate 1

cellular uptake in contrast to FAM-CGY (hCMEC/D3 cells [1]): relatively low
Compound: CC[C@H](C)[C@H](NC(=O)[C@H](CC(N)=O)NC(=O)[C@H](Cc1c[nH]cn1)NC(=O)[C@@H](NC(=O)[C@@H]1CCCN1C(=O)[C@H](CCCNC(=N)N)NC(=O)[C@H](Cc1ccc(O)cc1)NC(=O)CNC(=O)c1ccc2c(c1)C(=O)OC21c2ccc(O)cc2Oc2cc(O)ccc21)C(C)C)C(=O)N[C@@H](CCCNC(=N)N)C(=O)NCC(=O)N[C@@H](Cc1c[nH]cn1)C(=O)N[C@@H](Cc1c[nH]c2ccccc12)C(=O)N[C@@H](C)C(=O)N1CCC[C@H]1C(=O)NCC(=O)O [FAM-GYR] (5FAM-GYRPVHNIRGHWAPG-OH)

Compound: claudin-5-specific siRNA: sense 5′-CCUUAACAGACGGAAUGAAtt-3′, antisense 5′-UUCAUUCCGUCUGUUAAGGgc-3′ (sense CCUUAACAGACGGAAUGAATT; antisense UUCAUUCCGUCUGUUAAGGGC; chemistry not given here)
claudin-5 expression (claudin-5): downregulation of claudin-5

Compound: TfR siRNA: sense 5′-GGUCAUCAGGAUUGCCUAAtt-3′, antisense 5′-UUAGGCAAUCCUGAUGACCga-3′ (sense GGUCAUCAGGAUUGCCUAATT; antisense UUAGGCAAUCCUGAUGACCGA; chemistry not given here)
TfR expression leve (% of control) (TfR [2]; 8 nM siRNA, presumably complexed with 5 µM FAM-CGY, hCMEC/D3, 24 h + 48 h, replicate 1): 75.56%
TfR expression leve (% of control) (TfR [2]; 8 nM siRNA, Ave.): 70.89%
TfR expression leve (% of control) (TfR [2]; 8 nM siRNA, replicate 2): 65.03%
TfR expression leve (% of control) (TfR [2]; 8 nM siRNA, replicate 3): 72.08%
TfR expression leve (% of control) (TfR [2]; 16 nM siRNA, Ave.): 54.45%
TfR expression leve (% of control) (TfR [2]; 24 nM siRNA, presumably siRNA alone, Ave.): 90.00%
TfR expression leve (% of control) (TfR [2]; 24 nM siRNA, presumably with siPORT, Ave.): 38.58%
cell viability (hCMEC/D3 cells [3]): > 95%
TfR expression level (%) (TfR [4]; [6]): 30.26%
TfR expression level (%) (TfR [4]; Ave.): 34.58%
TfR expression level (%) (TfR [4]; replicate 2): 32.56%
TfR expression level (%) (TfR [4]; replicate 3): 40.91%

Compound: lipopolysaccharide from Escherichia coli O55:B5 [LPS]
WBC ([5]; 24 h after i.v. (LPS 200 μg kg−1)): 1.49±0.26 (×109)L-1
HCT ([5]; 24 h after i.v.): 71.90±6.10%
HGB ([5]; 24 h after i.v.): 152.25±14.25 gL-1
MCH ([5]; 24 h after i.v.): 17.45 ± 0.45 pg
MCHC ([5]; 24 h after i.v.): 211.75±2.63 gL-1
MCV ([5]; 24 h after i.v.): 82.78 ± 1.23 fL
PLT ([5]; 24 h after i.v.): 282.45±28.83 (×109)L-1
RBC ([5]; 24 h after i.v.): 8.72±0.61 (×1012)L-1
Iba-1 in hippocampus (Figure 6h) (Iba-1): 1.68
GFAP in hippocampus (Figure 6i) (GFAP): 289.26
IL-1β in hippocampus (Figure 6g) (IL-1β): 36.79
IL-6 in hippocampus (Figure 6f) (IL-6): 9.69

Compound: RAGE siRNA: sense 5′-GGUGGAACCGUAACCUGAtt-3′, antisense 5′-UCAGGGUUACGGUUCCACCag-3′ (sense GGUGGAACCGUAACCUGATT; antisense UCAGGGUUACGGUUCCACCAG; chemistry not given here)
cell viability (hCMEC/D3 cells [3]): > 95%
RAGE expression level (%) (RAGE; [6]): 54.86%
RAGE expression level (%) (RAGE; Ave.): 53.86%
RAGE expression level (%) (RAGE; replicate 2): 57.89%
RAGE expression level (%) (RAGE; replicate 3): 48.82%
